The target of this assay is T1, IL33 and ST2 binding (Homo sapiens, UniProt O95760).
T1 sequence (O95760 112-270 limits assumed): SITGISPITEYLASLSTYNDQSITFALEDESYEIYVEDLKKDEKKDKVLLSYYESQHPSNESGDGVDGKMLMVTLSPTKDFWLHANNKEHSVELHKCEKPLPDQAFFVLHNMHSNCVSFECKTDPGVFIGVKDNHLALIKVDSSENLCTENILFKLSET

Where two headings read alike, the source gives them in different places.

The values below come from patent publication US20240287052A1, “NOVEL OXAZOLE DERIVATIVE AND PHARMACEUTICAL COMPOSITION FOR PREVENTING OR TREATING ALLERGIC DISEASES COMPRISING THE SAME” (AZCURIS CO., LTD., priority 2021, published 2024).

By inhibition is commonly meant the change of the read-out against control, counted positive when it falls.
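Note: plate ELISA with coated Flag-tagged human IL-33 and His-tagged human ST2, bound ST2 detected by anti-His HRP and TMB absorbance at 450 nm, 2 h compound incubation.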

Take `CN(C)CCNC(=O)c1nc(-c2ccccc2C(F)(F)F)oc1-c1ccccc1[N+](=O)[O-]` [Compound 119, N-(2-(Dimethylamino)ethyl)-5-(2-nitrophenyl)-2-(2-(trifluoromethyl)phenyl)oxazole-4-carboxamide]: the inhibition was -6% (30 µM) and -14% (100 µM).
In the same order, the values of `CN1CCN(CCNC(=O)c2nc(-c3ccccc3C(F)(F)F)oc2-c2ccccc2[N+](=O)[O-])CC1` [Compound 120, N-(2-(4-Methylpiperazin-1-yl)ethyl)-5-(2-nitrophenyl)-2-(2-(trifluoromethyl)phenyl)oxazole-4-carboxamide] are 7% and 40%.
In the same order, the values of `CN(C)CCNC(=O)c1nc(-c2cccc(C(F)(F)F)c2)oc1-c1ccccc1` [Compound 121, N-(2-(Dimethylamino)ethyl)-5-phenyl-2-(3-(trifluoromethyl)phenyl)oxazole-4-carboxamide] are -20% and -18%.
In the same order, the values of `CN1CCN(CCNC(=O)c2nc(-c3cccc(C(F)(F)F)c3)oc2-c2ccccc2)CC1` [Compound 122, N-(2-(4-Methylpiperazin-1-yl)ethyl)-5-phenyl-2-(3-(trifluoromethyl)phenyl)oxazole-4-carboxamide] are -18% and 0%.
`CN(C)CCNC(=O)c1nc(-c2cccc(C(F)(F)F)c2)oc1-c1ccccc1[N+](=O)[O-]` [Compound 123, N-(2-(Dimethylamino)ethyl)-5-(2-nitrophenyl)-2-(3-(trifluoromethyl)phenyl)oxazole-4-carboxamide]: the inhibition is -22% (30 µM) and 39% (100 µM).
The corresponding values for `CN1CCN(CCNC(=O)c2nc(-c3cccc(C(F)(F)F)c3)oc2-c2ccccc2[N+](=O)[O-])CC1` [Compound 124, N-(2-(4-Methylpiperazin-1-yl)ethyl)-5-(2-nitrophenyl)-2-(3-(trifluoromethyl)phenyl)oxazole-4-carboxamide] are 50% and 31%.
The corresponding values for `CN(C)CCN1CCN(C(=O)c2nc(-c3cccc(C(F)(F)F)c3)oc2-c2ccccc2[N+](=O)[O-])CC1` [Compound 125, (4-(2-(Dimethylamino)ethyl)piperazin-1-yl)(5-(2-nitrophenyl)-2-(3-(trifluoromethyl)phenyl)oxazol-4-yl)methanone] are 20% and 24%.
In the same order, the values of `CN(C)CCNC(=O)c1nc(-c2ccc(C(F)(F)F)cc2)oc1-c1ccccc1` [Compound 126, N-(2-(Dimethylamino)ethyl)-5-phenyl-2-(4-(trifluoromethyl)phenyl)oxazole-4-carboxamide] are -14% and 6%.
With `CN1CCN(CCNC(=O)c2nc(-c3ccc(C(F)(F)F)cc3)oc2-c2ccccc2)CC1` [Compound 127, N-(2-(4-Methylpiperazin-1-yl)ethyl)-5-phenyl-2-(4-(trifluoromethyl)phenyl)oxazole-4-carboxamide], the inhibition (30 µM) was -24% and the inhibition (100 µM) was -5%.
`CN(C)CCN1CCN(C(=O)c2nc(-c3ccc(C(F)(F)F)cc3)oc2-c2ccccc2)CC1` [Compound 129]: the inhibition is, setting by setting: (30 µM) 45%; (100 µM) 79%.
The corresponding values for `O=C(NCCc1ccc(O)cc1)c1nc(-c2ccc(C(F)(F)F)cc2)oc1-c1ccccc1` [Compound 130, N-(4-Hydroxyphenethyl)-5-phenyl-2-(4-(trifluoromethyl)phenyl)oxazole-4-carboxamide] are 11% and 37%.
Take `CN(C)CCNC(=O)c1nc(-c2ccc(C(F)(F)F)cc2)oc1-c1ccccc1[N+](=O)[O-]` [Compound 131, N-(2-(Dimethylamino)ethyl)-5-(2-nitrophenyl)-2-(4-(trifluoromethyl)phenyl)oxazole-4-carboxamide]: the inhibition stood at 91% (30 µM) and 92% (100 µM).
In the same order, the values of `O=C(c1nc(-c2ccc(C(F)(F)F)cc2)oc1-c1ccccc1[N+](=O)[O-])N1CCCC1` [Compound 138, (5-(2-Nitrophenyl)-2-(4-(trifluoromethyl)phenyl)oxazol-4-yl)(pyrrolidin-1-yl)methanone] are 6% and 11%.
In the case of `O=C(NCCN1CCCC1)c1nc(-c2ccc(C(F)(F)F)cc2)oc1-c1ccccc1[N+](=O)[O-]` [Compound 139, 5-(2-Nitrophenyl)-N-(2-(pyrrolidin-1-yl)ethyl)-2-(4-(trifluoromethyl)phenyl)oxazole-4-carboxamide], the inhibition reads like this: (30 µM) 4%; (100 µM) 13%.
In the same order, the values of `O=C(NCCCN1CCCC1)c1nc(-c2ccc(C(F)(F)F)cc2)oc1-c1ccccc1[N+](=O)[O-]` [Compound 140, 5-(2-Nitrophenyl)-N-(3-(pyrrolidin-1-yl)propyl)-2-(4-(trifluoromethyl)phenyl)oxazole-4-carboxamide] are 10% and 15%.
The corresponding values for `O=C(NCc1ccncc1)c1nc(-c2ccc(C(F)(F)F)cc2)oc1-c1ccccc1[N+](=O)[O-]` [Compound 141, 5-(2-Nitrophenyl)-N-(pyridin-4-ylmethyl)-2-(4-(trifluoromethyl)phenyl)oxazole-4-carboxamide] are -11% and -3%.
The corresponding values for `O=C(NCc1cccnc1)c1nc(-c2ccc(C(F)(F)F)cc2)oc1-c1ccccc1[N+](=O)[O-]` [Compound 142, 5-(2-Nitrophenyl)-N-(pyridin-3-ylmethyl)-2-(4-(trifluoromethyl)phenyl)oxazole-4-carboxamide] are 6% and 8%.
For `O=C(Nc1ccccn1)c1nc(-c2ccc(C(F)(F)F)cc2)oc1-c1ccccc1[N+](=O)[O-]` [Compound 143, 5-(2-Nitrophenyl)-N-(pyridin-2-yl)-2-(4-(trifluoromethyl)phenyl)oxazole-4-carboxamide], the inhibition by setting is: (30 µM) 9%; (100 µM) 8%.
Consider `O=C(c1nc(-c2ccc(C(F)(F)F)cc2)oc1-c1ccccc1[N+](=O)[O-])N1CCCCC1` [Compound 144, (5-(2-Nitrophenyl)-2-(4-(trifluoromethyl)phenyl)oxazol-4-yl)(piperidin-1-yl)methanone], for which the inhibition is, setting by setting: (30 µM) -19%; (100 µM) -34%.
In the case of `O=C(c1nc(-c2ccc(C(F)(F)F)cc2)oc1-c1ccccc1[N+](=O)[O-])N1CCC(c2ccccc2)CC1` [Compound 145, (5-(2-Nitrophenyl)-2-(4-(trifluoromethyl)phenyl)oxazol-4-yl)(4-phenylpiperidin-1-yl)methanone], the inhibition (30 µM) worked out at 3% and the inhibition (100 µM) amounted to 11%.
The corresponding values for `O=C(c1nc(-c2ccc(C(F)(F)F)cc2)oc1-c1ccccc1[N+](=O)[O-])N1CCN(C2CC2)CC1` [Compound 146, (4-Cyclopropylpiperazin-1-yl)(5-(2-nitrophenyl)-2-(4-(trifluoromethyl)phenyl)oxazol-4-yl)methanone] are -35% and -57%.
In the same order, the values of `CC(=O)c1ccc(NC(=O)c2nc(-c3ccc(C(F)(F)F)cc3)oc2-c2ccccc2[N+](=O)[O-])cc1` [Compound 147, N-(4-Acetylphenyl)-5-(2-nitrophenyl)-2-(4-(trifluoromethyl)phenyl)oxazole-4-carboxamide] are 1% and 4%.
In the same order, the values of `O=C(NCc1ccc(C(F)(F)F)cc1)c1nc(-c2ccc(C(F)(F)F)cc2)oc1-c1ccccc1[N+](=O)[O-]` [Compound 148, 5-(2-Nitrophenyl)-N-(4-(trifluoromethyl)benzyl)-2-(4-(trifluoromethyl)phenyl)oxazole-4-carboxamide] are 12% and 19%.
For the compound `O=C(NCCc1ccc(F)cc1)c1nc(-c2ccc(C(F)(F)F)cc2)oc1-c1ccccc1[N+](=O)[O-]` [Compound 149, N-(4-Fluorophenethyl)-5-(2-nitrophenyl)-2-(4-(trifluoromethyl)phenyl)oxazole-4-carboxamide], the inhibition amounted to 20% (30 µM) and 19% (100 µM).
In the same order, the values of `CN(C)CCCN1CCN(C(=O)c2nc(-c3ccc(C(F)(F)F)cc3)oc2-c2ccccc2[N+](=O)[O-])CC1` [Compound 150, (4-(3-(Dimethylamino)propyl)piperazin-1-yl)(5-(2-nitrophenyl)-2-(4-(trifluoromethyl)phenyl)oxazol-4-yl)methanone] are -18% and 7%.
In the same order, the values of `O=C(c1nc(-c2ccc(C(F)(F)F)cc2)oc1-c1ccccc1[N+](=O)[O-])N1CCN(CCN2CCCCC2)CC1` [Compound 151, (5-(2-Nitrophenyl)-2-(4-(trifluoromethyl)phenyl)oxazol-4-yl)(4-(2-(piperidin-1-yl)ethyl)piperazin-1-yl)methanone] are -33% and -16%.
The corresponding values for `O=C(c1nc(-c2ccc(C(F)(F)F)cc2)oc1-c1ccccc1[N+](=O)[O-])N1CCN(CCN2CCOCC2)CC1` [Compound 152, (4-(2-Morpholinoethyl)piperazin-1-yl)(5-(2-nitrophenyl)-2-(4-(trifluoromethyl)phenyl)oxazol-4-yl)methanone] are 36% and 48%.
For the compound `CCN(CC)CCN1CCN(C(=O)c2nc(-c3ccc(C(F)(F)F)cc3)oc2-c2ccccc2[N+](=O)[O-])CC1` [Compound 154, (4-(2-(Diethylamino)ethyl)piperazin-1-yl)(5-(2-nitrophenyl)-2-(4-(trifluoromethyl)phenyl)oxazol-4-yl)methanone], the inhibition (30 µM) is 0% and the inhibition (100 µM) was -25%.
`CN1CCN(C(=O)c2nc(-c3ccc(C(F)(F)F)cc3)oc2-c2ccccc2[N+](=O)[O-])CC1` [Compound 155, (4-Methylpiperazin-1-yl)(5-(2-nitrophenyl)-2-(4-(trifluoromethyl)phenyl)oxazol-4-yl)methanone]: the inhibition is -31% (30 µM) and -18% (100 µM).
